Experimental data taken from PubChem BioAssay AID1996.
Converted amounts (≈) assume the structure as drawn.

Settings: buffer; pH 7.4; 200.0 µM

Structure (SMILES)	solubility kinetic [µg/mL]
O=C(COC(=O)c1cccnc1Cl)NCc1ccc(F)cc1	> 48.4
O=C(Nc1ccc(F)cc1)c1cccc(N2C(=O)c3ccccc3C2=O)c1	0.7 (≈ 1.94 µM)
COc1ccc(NC(=S)NCCc2ccccc2)c(C)c1	8.5 (≈ 28.3 µM)
CCOC(=O)c1[nH]cnc1C(=O)Nc1cccc(OC)c1	4.4 (≈ 15.2 µM)
COc1cccc(C(=O)NCC(=O)N/N=C/c2cccnc2)c1	> 46.8
CCCN(Cc1cc(=O)[nH]c2ccccc12)C(=O)CC	38.5 (≈ 141 µM)
Cc1nc(N2CCC(C)CC2)c(C#N)c(C)c1[N+](=O)[O-]	0.9 (≈ 3.28 µM)
CC(=NCCc1ccccc1)C1=C(O)C(c2ccccc2)OC1=O (stereo not given)	31.7 (≈ 98.6 µM)
CN1CCc2c1nc1ccccc1c2NC(=O)CN1CCCC1	28.9 (≈ 93.1 µM)
Cc1ccc(CN2CCN(C3CCCC3)C(CCO)C2)s1 (stereo not given)	43.7 (≈ 142 µM)
O=C(Nc1nccs1)c1ccc(COc2ccccc2)o1	< 0.3
CCOC(=O)c1c(C)[nH]c(C(=O)N2CCN(CC)CC2)c1C	> 46.1
Cn1c2ccccc2c2ncn(Cc3ccc(F)cc3)c(=O)c21	< 0.2
CC(C(=O)OCC(=O)c1ccccc1)N1C(=O)C2C3CCC(C3)C2C1=O (stereo not given)	> 53.3
CC(C)CC(=O)NC(=S)Nc1ccc(CN2CCOCC2)cc1	> 50.3
Cc1ccc(C(=O)N2CCC(Cc3ccccc3)CC2)cc1[N+](=O)[O-]	10.3 (≈ 30.4 µM)
Cc1sc2nc(C)n(/N=C/N(C)C)c(=O)c2c1C	> 39.7
Cc1cccc(C)c1NC(=S)NCc1ccncc1	> 40.7
CCS(=O)(=O)Nc1ccc2[nH]c(=O)[nH]c2c1	> 36.2
O=C(O)/C=C/C(=O)NC1CCCCCCCCCCC1	> 42.2
O=C(CN1CCCCCC1)Nc1cc(C(F)(F)F)ccc1Cl	< 0.4
C=CCNC(=S)/N=c1/ccccn1C	> 31.1
O=[N+]([O-])c1ccc2c(c1)Nc1nc3ccccc3nc1N2	1.4 (≈ 5.01 µM)
O=c1c2[nH]c3ccc(Br)cc3c2ncn1Cc1ccncc1	0.4 (≈ 1.13 µM)

Structure (SMILES)	solubility kinetic [µg/mL]
COc1ccc(C(=O)N2CCCc3ccccc32)cc1Br	26.4 (≈ 76.3 µM)
COc1ccccc1NS(=O)(=O)c1ccc2oc(SC)nc2c1	1.9 (≈ 5.42 µM)
O=S(=O)(c1ccccc1)N1CCc2ccccc2C1	< 0.6
CCN1c2ccccc2S(=O)(=O)c2ccccc21	15.6 (≈ 60.2 µM)
Cn1ccnc1SCC(=O)Nc1ccc([N+](=O)[O-])cn1	> 44
CC(=O)c1ccc(NC(=O)C[n+]2ccccc2)cc1.[Cl-]	> 43.6
COc1ccc(/C=C/C(=O)O)cc1S(=O)(=O)Nc1ccc2c(c1)OCO2	49.8 (≈ 132 µM)
COC(=O)c1ccc(CN2CCCCC2)cc1	28.9 (≈ 124 µM)
CC(C)N(Cc1ccccc1)C(=S)Nc1ccccc1F	40 (≈ 132 µM)
CCN(C(=O)COC(=O)CCC(=O)c1cccs1)c1ccccc1	> 51.8
N#C/C(=C(/O)c1cccc(F)c1)c1nc2ccccc2s1	17.8 (≈ 60.1 µM)
CC(C1CC1)N(Cc1ccccc1)C(=S)Nc1ccccc1Cl (stereo not given)	1.1 (≈ 3.19 µM)
COCCNC(=S)N(CCc1c(C)[nH]c2ccccc12)Cc1ccco1	27.9 (≈ 75.1 µM)
CC1CCC(NC(=O)Cn2c(=O)oc3ccccc32)CC1 (stereo not given)	4.9 (≈ 17 µM)
CC(C)c1ccc(NC(=O)N2CCOCC2)cc1	> 37.2
Cc1cc(OC(C)C(=O)Nc2cccnc2)ccc1Cl (stereo not given)	35.8 (≈ 123 µM)
O=C(c1cccc(C(F)(F)F)c1)N1CCc2c([nH]c3ccccc23)C1C(F)(F)F (stereo not given)	< 0.4
S=C(NCC1(c2ccccc2)CCCC1)Nc1ccccc1	0.8 (≈ 2.58 µM)
Cc1cc(C)cc(NC(=O)COC(=O)COc2ccc(N(C)S(=O)(=O)c3cccs3)cc2)c1	9.1 (≈ 18.6 µM)
O=C(COc1ccc2c(c1)OCO2)Nc1ccc(Cl)cn1	1.3 (≈ 4.24 µM)
O=C(Nc1cccc(F)c1)Nc1ccc2c(c1)OCO2	4.4 (≈ 16 µM)
Cc1c(NS(C)(=O)=O)cccc1-c1nc2cccnc2s1	42.9 (≈ 134 µM)
COc1ccc(Nc2c(-c3ccco3)nc3ccc(C)cn23)cc1	0.5 (≈ 1.57 µM)
Cc1cccc2cc(C#N)c(NCc3ccccc3)nc12	11.4 (≈ 41.7 µM)

Structure (SMILES)	solubility kinetic [µg/mL]
O=C(Nc1ccc(Cl)cc1)Nc1ccc(-c2cnco2)cc1	0.7 (≈ 2.23 µM)
O=[N+]([O-])c1ccc(SCc2ccncc2)nc1	30.5 (≈ 123 µM)
O=C1c2oc3ccccc3c(=O)c2C(c2ccc(O)cc2)N1c1nccs1 (stereo not given)	0.8 (≈ 2.13 µM)
COC(=O)c1ccc(COc2ccccc2/C=N/O)o1	> 41.3
O.S=c1nc[nH]c2nc[nH]c12	> 25.5
S=C(NCc1ccccc1)Nc1cccc2cnccc12	> 44
O=C1CC(NCCc2ccccc2)C(=O)N1CCc1ccccc1 (stereo not given)	46.1 (≈ 143 µM)
CCOc1cccc(NC(=O)c2cnccc2C(F)(F)F)c1	43.2 (≈ 139 µM)
Cc1ccccc1NC(=S)NNC(=O)c1ccncc1	> 43
Cc1ccc[n+](CC(=O)Nc2ccc(C)c(C)c2)c1.[Cl-]	> 43.6
COc1ccccc1NS(=O)(=O)c1cc(N)ccc1N1CCCCC1	6.1 (≈ 16.9 µM)
Cn1c(=O)c2cc3ccc(Cl)cc3nc2n(C)c1=O	0.4 (≈ 1.45 µM)
CC(C)OC(=O)Cc1nc2sc(-c3ccccc3)cc2c(=O)[nH]1	2 (≈ 6.09 µM)
CCN1CCN(c2ccc(NC(=O)c3ccco3)cc2Cl)CC1	45.2 (≈ 135 µM)
CC(Sc1ncccn1)C(=O)Nc1ccc2c(c1)OCO2 (stereo not given)	45 (≈ 148 µM)
CCN(C(=S)Nc1cccnc1)c1ccccc1	36.3 (≈ 141 µM)
NS(=O)(=O)c1ccc(O)c(NC(=O)c2ccc([N+](=O)[O-])o2)c1	> 49.1
CN(C)c1c(F)cc(C(=O)NC(=O)NCc2cccnc2)cc1F	4 (≈ 12 µM)
Cc1ccc(N2CC(C(=O)Nc3ccccc3N3CCCC3)CC2=O)cc1 (stereo not given)	21.4 (≈ 58.9 µM)
CNC(=O)CSc1nnc(-c2ccco2)n1-c1cc(C)ccc1C	> 51.4
COC(=O)c1ccc(C2C(C#N)=C(N)Oc3cc(N)ccc32)cc1 (stereo not given)	11.2 (≈ 34.9 µM)
CC1CCC(NS(=O)(=O)c2cccc3nsnc23)CC1 (stereo not given)	> 46.7
COC(=O)C(NC(C)=O)(Nc1cc(C)ccn1)C(F)(F)F (stereo not given)	40.7 (≈ 133 µM)
NC(=O)CSc1nc(C23CC4CC(CC(C4)C2)C3)nc2ccccc12	1.2 (≈ 3.39 µM)

Structure (SMILES)	solubility kinetic [µg/mL]
COc1ccc(/C=C/C(=O)N2CCN(c3ccccn3)CC2)cc1	13.9 (≈ 43 µM)
O=S(=O)(c1ccccc1)N1CCN(CCO)CC1	> 40.6
COC(=O)c1ccc(OC(=O)c2ccncc2)cc1O	> 41
CCc1ccccc1NC(=S)N(CCc1ccncc1)C(C)C	44 (≈ 134 µM)
Cc1ccc(F)c(N=Cc2c(O)c3ccccc3oc2=O)c1	1.8 (≈ 6.05 µM)
CC(=O)Nc1cc2nc(C)n(Cc3ccc([N+](=O)[O-])cc3)c2nc1C	> 50.9
Cc1ccc(NC(=O)CCOc2ccccc2)c(C)c1	20.2 (≈ 75 µM)
CC1CCCCN1C(=O)COc1ccc2ccc(=O)oc2c1 (stereo not given)	36.4 (≈ 121 µM)
N#Cc1ccc(C(=O)CN2CCN(c3ccccc3)CC2)cc1	34 (≈ 111 µM)
CC(=O)Nc1ccc(S(=O)(=O)N(C)CC(=O)OCC(=O)N2CCCCCC2)cc1	60.3 (≈ 142 µM)
O=C(Cc1cccc(C(F)(F)F)c1)N1CCCC1	> 38.6
COC(=O)[C@H](C)NC(=O)NCCC1=CCCCC1	> 38.1
O=C(COC(=O)c1ccc([N+](=O)[O-])o1)NC1CCCc2ccccc21 (stereo not given)	26.3 (≈ 76.4 µM)
O=C1Nc2ccc(Br)cc2C1(O)c1ccccc1 (stereo not given)	> 45.6
CCN(C(=O)C12CC3CC(CC(C3)C1)C2)C1CCS(=O)(=O)C1 (stereo not given)	> 48.8
Cc1ccc(-c2ocnc2C(=O)N2CCOCC2)cc1	> 40.8
Cc1ccc(N2CCN(C(=O)NC3CCCCC3)CC2C)cc1 (stereo not given)	> 47.3
N#C/C(=C\c1cccs1)C(=O)N1CCOCC1	35.5 (≈ 143 µM)
c1ccc(CCn2cnc3ccccc32)cc1	29.3 (≈ 132 µM)
CCOC(=O)c1ccc(NC(=O)NCc2ccccn2)cc1	42.2 (≈ 141 µM)
O=C(Nc1ccc(F)c(Cl)c1)C1CC(=O)n2c(nc3ccccc32)N1 (stereo not given)	0.4 (≈ 1.11 µM)
O=C(Cc1ccccc1)N1CCN(c2ccccc2F)CC1	> 44.8
CCCC(=O)NC(c1ccc(Cl)cc1)c1ccc2cccnc2c1O (stereo not given)	0.4 (≈ 1.13 µM)
CN(CC(=O)Nc1cccc(F)c1)C(=O)/C=C/c1ccc2ccccc2n1	9.9 (≈ 27.2 µM)

Structure (SMILES)	solubility kinetic [µg/mL]
COc1ccc(NC(=O)Nc2ccncc2)c(OC)c1	> 41
O=S(=O)(c1ccc(-c2ccon2)s1)N1CCOCC1	> 45.1
CN(C)CC(C)(C)CNS(=O)(=O)c1ccc(Cl)cc1.Cl	49.4
CC1(O)CCN2C(=O)CCc3cccc1c32 (stereo not given)	19.3 (≈ 88.8 µM)
NS(=O)(=O)c1ccc(CCNc2ccc(C(F)(F)F)cn2)cc1	48.1 (≈ 139 µM)
O=C(COC(=O)c1cccc(F)c1)NC(=O)NCc1ccccc1	2.4 (≈ 7.27 µM)
O=C(NCCc1c[nH]c2ccccc12)c1ccc(Br)o1	45.7 (≈ 137 µM)
COC(=O)c1sccc1NC(=O)Nc1ccccc1Cl	25.8 (≈ 83 µM)
Cc1cc(C)c(OCCn2ccnc2)c(C)c1	31.5 (≈ 137 µM)
O=C(COc1ccc(S(=O)(=O)N2CCCC2)cc1)N1CCCCC1	47.6 (≈ 135 µM)
Cc1ccc(CCNC(=O)C2CCC(=O)N2CCc2ccccc2)cc1 (stereo not given)	47.1 (≈ 134 µM)
CCn1c(CNC(=O)C23CC4CC(CC(C4)C2)C3)nnc1SC	> 50.2
Cc1ccc(-c2nc3cc(N)ccc3o2)cc1Br	0.3 (≈ 0.99 µM)
Cc1ccsc1C(=O)NCCc1ccc(S(N)(=O)=O)cc1	32.8 (≈ 101 µM)
CC(=O)c1cn(CCOc2ccc(F)cc2)c2ccccc12	10.8 (≈ 36.3 µM)
Cc1ccc(S(=O)(=O)Nc2ccc(F)cc2)cc1C(=O)N1CCOCC1	> 56.8
C=CCn1c(O)c(C(C)=NCCCN(C)C)c(=O)[nH]c1=O	> 44.2
Cn1c(N)c(C(=O)CSc2nnc3n2CCCCC3)c(=O)n(C)c1=O	> 54.7
Cl.O=C(CN1CCCCC1)Nc1cccc(Cl)c1	33.6
Cc1cc(C(=O)CCC(=O)NCC(=O)Nc2c(C)cccc2C)c(C)s1	> 55.9
Cc1ccc(N(C)C2=NC(=O)CS2)cc1Cl	34.8 (≈ 137 µM)
CC(=O)N1CCC(C(=O)NCCOc2ccc(C)cc2)CC1	> 45.7
O=C(Nc1cc(Cl)cc(Cl)c1)c1ccno1	8.4 (≈ 32.7 µM)
COc1ccccc1N1CCN(C(=O)c2cc3ccccc3[nH]2)CC1	2.7 (≈ 8.05 µM)
